Measured values taken from patent publication US11230569B2, “Antiplasmodial compounds” (UNIVERSITY OF CENTRAL FLORIDA RESEARCH FOUNDATION, INC., priority 2018, dated 2022).
Where two headings read alike, the source gives them in different places.

How the values were obtained:
[1] = test system: P. falciparum Dd2; assay: SYBR Green I-based fluorescence assay, intraerythrocytic growth inhibition; format: cell-based, Plasmodium falciparum
Source text: (§1) In the pursuit to discover next generation of antimalarials from novel areas of chemical space, a large library of diverse fungi was screened to discover secondary metabolites active against malaria parasite. […] The Cichewicz fungal collection contains tens of thousands of fungal isolates that were secured from diverse habitats and ecological niches across the United States. It is believed that fungal secondary metabolites, which are underexplored for antimalarial drug discovery, provide a unique opportunity to explore medicinally relevant, but untapped chemical space for the discovery of essential malaria therapeutics. Libraries of 750 pure compounds, and of 460 extracts obtained from diverse fungal sources have been screened for their ability to inhibit intraerythrocytic growth of chloroquine-resistant P. falciparum Dd2 using a SYBR Green I-based fluorescence assay. As a counter screen, the cytotoxicity of the top ten extracts in HepG2 cells was evaluated using the MTS ((3-(4,5 dimethylthiazol-2-yl)-5-(3-carboxymethoxyphenyl)-2-(4-sulfophenyl)-2H-tetrazolium, inner salt) cell proliferation assay. This screening has identified potent and selective novel antiplasmodial compounds. These unique pharmacophores from wide areas of chemical space would provide chemical starting points to develop lead compounds for drugs against malaria.
Ten millimolar compound stocks in DMSO were diluted by ½, ⅕, and/or 1/10 fold dilutions in ultrapure water or RPMI 1640. Varying concentrations of compound were added to culture at a 1% parasitemia and 2% hematocrit in 96-well black plates. Assay conditions maintained maximum DMSO concentrations less than 0.125% per dilution. Positive (baseline 0% growth) controls consisted of Chloroquine at 1 μM final concentration. Following 72 h incubation at 37° C. in 5% CO2, dilution plates were frozen at −80° C. for a minimum of 30 minutes. Dilution plates were allowed to thaw followed by lysis treatment and SYBR Green I incorporation. DNA quantification was determined using a fluorescence reading on a Synergy H4 multimode plate reader set at 485 nm excitation and 530 nm emission as previously reported (Roberts, Iyamu et al. 2016). EC50 was calculated from a dose response curve that was generated from a concentration range of 0-10 μM using GraphPad Prism v5.0.
Different dilutions of the compound/fraction in 1 μl of the culture medium were added to 99 μl of P. falciparum culture at a 1% parasitemia and 2% hematocrit in 96-well plates. Maximum DMSO concentration in the culture never exceeded 0.125%. Chloroquine at 1 μM was used as a positive control to determine the baseline value. Following 72 hours incubation at 37° C., the plates were frozen at −80° C. After thawing, 100 μL of lysis buffer (with SYBR Green I dye 1:10,000) was added to each well and plates were incubated at room temperature for 30 minutes prior to reading.
Culture was maintained following a modified Trager and Jensen protocol.^xxv Multi-drug resistant P. falciparum line Dd2 was grown in RPMI 1640 supplemented with 25 mM HEPES pH 7.4, 26 mM NaHCO3, 2% dextrose, 15 mg/L hypoxanthine, 25 mg/L gentamycin and 0.5% Albumax II in human A+ erythrocytes. Culture was maintained at 4% hematocrit at 37° C. with 5% CO2.
Plates were subsequently frozen at −80° C. to facilitate lysis. After thawing, plates were incubated with 1×SYBR Green I in lysis buffer (20 mM Tris-HCl, 0.08% saponin, 5 mM EDTA, 0.8% Triton X-100) for 45-60 min at room temperature. Fluorescence was measured at an excitation wavelength 485 nm, emission 530 nm in a Synergy Neo2 multi-mode reader (BioTek, Winsooki, Vt.). RFUs were normalized based on chloroquine treated and no treatment controls. For all compounds listed, serial dilutions were prepared in RPMI with final assay conditions of 0.2% DMSO or below.

[2] = test system: HepG2 human hepatocytes; assay: MTS cytotoxicity assay in HepG2 cells (counter screen, selectivity); format: cell-based; conditions: for Selectivity Index: Hep G2 cell EC50 : P. falciparum EC50, pure compound library hits
Source text: as §1
Cross selectivity for human cells was determined using HepG2 human hepatocytes and an MTS (3-(4,5-Dimethylthiazol-2-yl)-5-(3-carboxymethoxyphenyl)-2-(4-sulfophenyl)-2H-tetrazolium) based cytotoxicity assay. After seeding 2,250 cells per well into 384-well microtiter plates, cells were incubated for 24 h. Next, serial dilutions of compounds were added to the seeded plates and incubated for additional 48 h at 37° C., and 5% CO2. Zero percent growth control wells were incubated with 5% Triton X-100 for 5 min prior to MTS addition and incubated for 4 h at identical growth conditions. Absorbance was then read at 490 nm in a Synergy Neo2 multi-mode reader (BioTek, Winsooki, Vt.) and values were normalized based on detergent lysed and no treatment controls.

[3] = test system: Histone H4; assay: Western blot of parasite extracts with anti-acetyl histone 4 antibody; format: cell-based, Plasmodium; conditions: mixed stage culture, EC90 concentrations, 4 hrs
Method: Mixed stage culture was incubated with EC90 concentrations of 130134 Analog 2 and PF1070A for 4 hrs and cell free parasite extracts were subjected to western blot analysis using anti-acetyl histone 4 antibody.
Of the hits found, several have known targets in other model systems, allowing us to expedite target analysis. One such compound is Chlamydocin, a known Class I HDAC inhibitor. Western blot analysis of Plasmodium extracts confirms that analogs of this compound causes hyperacetylation of histone 4 and is suspected to target Plasmodium HDAC1.

[4] = test system: trophozoites; assay: IFA and western blot for acetylation after treatment at 6 HPI; format: cell-based; conditions: culture followed until 54 HPI
Source text: Culture followed until 54 HPI. Scale bar represents 1 micron.
(§2) Culture followed until 54 HPI. Scale bar represents 1 micron. FIG. 10(B) is a western blot showing acetylation following treatment at 6 HPI with 137LJ57K, initial impure extract of 137LJ57K1.

[5] = target: PfHDAC1 (Plasmodium falciparum, UniProt Q7K6A1); assay: PfHDAC1 assay; format: biochemical
Chain of PfHDAC1 (Q7K6A1 entry or part of it): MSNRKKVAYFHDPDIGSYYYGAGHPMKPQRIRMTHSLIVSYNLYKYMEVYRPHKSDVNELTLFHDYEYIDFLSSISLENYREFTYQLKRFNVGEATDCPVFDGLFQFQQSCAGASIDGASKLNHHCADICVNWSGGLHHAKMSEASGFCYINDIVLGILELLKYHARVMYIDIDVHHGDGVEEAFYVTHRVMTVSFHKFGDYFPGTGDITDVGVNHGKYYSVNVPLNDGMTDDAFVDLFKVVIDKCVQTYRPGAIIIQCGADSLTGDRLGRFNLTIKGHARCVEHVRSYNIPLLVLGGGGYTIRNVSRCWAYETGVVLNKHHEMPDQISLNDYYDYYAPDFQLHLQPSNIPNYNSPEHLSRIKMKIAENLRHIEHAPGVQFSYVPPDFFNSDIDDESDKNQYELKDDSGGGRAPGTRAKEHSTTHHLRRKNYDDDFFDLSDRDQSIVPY
Source text: as §2
FIGS. 17-20 provide multiple versions of cyclic tetrapeptides along with their EC50s for various noted assays including Pf, Hep G2 and PfHDAC1 assays

[6] = test system: P. falciparum; conditions: literature; cited from earlier work
[7] = Plasmodium falciparum, DD2, 72 h
[8] = Plasmodium falciparum, Top hits from pure compound library, chloroquine-resistant P. falciparum Dd2, 72 h, read-out: EC50

Compound | EC50 [1, 7] | Selectivity Index [2] | also measured
CC1NC(=O)C(CCCCCC(=O)C2CO2)NC(=O)C2CCCN2C(=O)C(Cc2ccccc2)NC1=O (centres unmarked) [130134 Analog 1, 1-Alanine-chlamydocin] | 9 nM | 3 | hyperacetylation of Histone H4 [3]: causes hyperacetylation of Histone H4
CCC(C)C1NC(=O)C(Cc2ccccc2)NC(=O)C(CCCCCC(=O)C2CO2)NC(=O)C2CCCCN2C1=O (centres unmarked) [130134 Analog 2, PF1070A] | 37 nM | >23 | EC50 ([1]; Plasmodium falciparum, DD2, read-out: EC50 against multidrug resistant malaria): 37 nM; selectivity (in words) [2]: selective; hyperacetylation of Histone H4 [3]: causes hyperacetylation of Histone H4
CCC(C)C1NC(=O)C(Cc2ccccc2)NC(=O)C(CCCCCC(=O)C2CO2)NC(=O)C2CCCCN2C1=O (centres unmarked) [Compound 137LJ57K1] | – | – | EC50 ([1]; Plasmodium falciparum, DD2, read-out: Dd2 EC50 (nM)): 88 nM; EC50 ([2]; Homo sapiens, HepG2): 13100 nM; hyperacetylation [4]: hyperacetylation during trophozoite stage; EC50 [5]: < 0.2 nM
C/C1=C\[C@H](C)C[C@H](C)CC(=O)C[C@H](c2ccc(O)cc2)NC(=O)[C@@H](Cc2c(Br)[nH]c3ccccc23)N(C)C(=O)[C@H](C)NC(=O)[C@@H](C)C1 [Compound 120030] | 271 nM | >92.25 | –
C=C1[C@@H](O)[C@@H]2O[C@]3(CC[C@H](/C=C/[C@@H](C)[C@@H]4CC(C)=C[C@@]5(O[C@H](C[C@@](C)(O)C(=O)O)CC[C@H]5O)O4)O3)CC[C@H]2O[C@@H]1[C@@H](O)C[C@H](C)[C@H]1O[C@@]2(CCCCO2)CC[C@H]1C [Compound 120033] | 55 nM | >77 | –
COC1=CC(c2ccc[nH]2)=N/C1=C/NCC(C)C [Compound 120036] | – | 57.31 | EC50 [1, 8]: 180 nM
Oc1cc(O)c2c(c1)O[C@H](c1ccc(O)c(O)c1)[C@@H](O)C2 [Compound 120051] | – | 11.44 | EC50 [1, 8]: 47 nM
C[C@@]12OC(=O)[C@]1(C(O)[C@@H]1C=CCCC1)NC(=O)[C@@H]2CCCl (some centres unmarked) [Compound 120066] | 47 nM | 290.28 | –
CC[C@H]1/C=C/C=C/C[C@@H](C)[C@H](O)[C@@](C)(O)C(=O)[C@@H](C)[C@H](O)[C@@H](C)C(=O)[C@@H](C)[C@H](O)[C@@H](C)/C=C/C(=O)O[C@@H]2[C@H](C)[C@H](CC1)O[C@]1(CC[C@H](C)[C@H](C[C@@H](C)O)O1)[C@H]2C [Compound 120086] | – | 14.62 | EC50 [1, 8]: 361 nM
O=C(c1cc(Cl)c(Cl)[nH]1)c1c(O)cccc1O [Compound 130115] | 491 nM | >32 | –
CC(C)[C@H]1CC[C@@](O)(CCl)[C@H]2C(=O)OCC(C(=O)O)=C[C@H]12 [Compound 130129] | 361 nM | 3 | –
CC(C)C1CCC(O)(CCl)C2C(=O)OCC(C(=O)O)=CC12 (centres unmarked) [Compound 130130] | 469 nM | 3 | –
CC(C)[C@H]1CC[C@@](O)(COC(=O)/C(=C/[C@@H]2[C@@H](C(C)C)CCC3(O)COC(=O)[C@@H]23)CO)[C@H]2C(=O)OCC(C(=O)O)=C[C@H]12 (some centres unmarked) [Compound 130131] | – | >54 | EC50 [1, 8]: 367 nM
CC[C@H](C)[C@@H](C(=O)O[C@@H](CC(C)C)C(=O)N[C@@H](CC(C)C)C(=O)N[C@@H](C)/C=C/C(=O)N1C(=O)C=C(OC)[C@@H]1C)N(C)C [gallinamide A] | – | – | IC50 [6]: 8400 nM
Chlamydocin [Compound 130134] | – | 7 | EC50 ([1]; Top hits from pure compound library, chloroquine-resistant P. falciparum Dd2, 72 h, read-out: EC50): 24.7 nM
